Assay results reported in US6455535B1, “Substituted aminoquinazolinone (thione) derivatives or salts thereof, intermediates thereof, and pest controllers and a method for using the same” (Nihon Nohyaku Co., Ltd., priority 1999, dated 2002).

Assays:
[1] = tested on: greenhouse whitefly (Trialeurodes vaporariorum); test: Insecticidal test on greenhouse whitefly, tomato leaf spray (Test Example 3); assay type: in vivo; conditions: 100 ppm test liquid sprayed on tomato leaf, 20 adults inoculated; for mortality at 100 ppm: Trialeurodes vaporariorum, read-out: insecticidal effect rating (mortality of adults)
Method: Insecticidal Test on Greenhouse Whitefly (Trialeurodes vaporariorum)
Each compounds of the present invention listed in Table 3 and Table 4 was dispersed in and diluted with water to prepare a test liquid containing 100 ppm of the test compound. By use of a spraygun, the test liquid was sprayed on the surface of a leaf of tomato plant put in a 20 ml-vial bottle containing water on a turn table. After air-dried, the leaf treated with the test liquid was put in a glass cylinder, and inoculated with 20 adults of greenhouse whitefly thereon. After the inoculation, the leaf was placed in a greenhouse, and the number of adults of greenhouse whitefly was counted. The mortality of the adults was calculated similar to that of conducted in Test Example 2, and the insecticidal effect of each one of the test compounds was evaluated by the method identical to Test Example 1.

[2] = tested on: brown rice planthopper (Nilaparvata lugens); test: whole plant or invertebrate; assay type: in vivo; conditions: 192 h, rice seedlings immersed 30 seconds, 10 third-instar nymphs, eight days after inoculation, read-out: insecticidal effect rating (corrected larval mortality)
Text: Insecticidal Effect on Brown Rice Planthopper (Nilaparvata lugens)
Each substituted aminoquinazolinone (thione) derivative of the general formula (I) or salt thereof of the present invention listed in Tables 3 and 4 was dispersed in and diluted with water to obtain a 500 ppm liquid chemical. Rice seedlings (cultivar: Nihonbare) were immersed in the liquid chemical for 30 seconds and air-dried, after which each seedling was placed in a glass test tube and inoculated with 10 third-instar nymphs of brown rice planthopper, and the test tube was pluged with a cotton plug. Eight days after the inoculation, the dead and alive were counted. The mortality was calculated by the following equation and the control effect was judged according to the criterion described below.
Corrected larval mortality (%)={(Ca/c−Ta/T)/Ca/c}×100
Ta: number of alive nymphs in treated groups
T: number of inoculated nymphs in treated groups
Ca: number of alive numphs in untreated groups
c: number of inoculated nymphs in untreated groups
Criterion: the same as in Test Example 1.

Structure (SMILES)	mortality at 100 ppm [1]	mortality at 500 ppm [2]	insecticidal effect rating (mortality of adults) [1]
O=C1Nc2ccc(OC(F)(F)F)cc2CN1/N=C/c1cccnc1 [Compound No. 30, 3-(3-pyridylmethylideneamino)-3,4-dihydro-6-trifluoromethoxy-2(1H)-quinazolinone]	100%	100%	
O=C1Nc2ccc(OC(F)(F)F)cc2CN1NCc1cccnc1 [Compound No. 208, 3-(3-pyridylmethylamino)-3,4-dihydro-6-trifluoromethoxy-2(1H)-quinazolinone]	100%	100%	
O=C1Nc2ccc(I)cc2CN1N=Cc1cccnc1 [compound 10]			D or higher
O=C1Nc2ccc(C(F)(F)F)cc2CN1N=Cc1cccnc1 [compound 14]			D or higher
O=C1Nc2ccc(OC(F)F)cc2CN1N=Cc1cccnc1 [compound 38]			D or higher
CCOC(=O)c1ccc2c(c1)CN(N=Cc1cccnc1)C(=O)N2 [compound 78]			D or higher
O=C1Nc2ccc(-c3ccccc3)cc2CN1N=Cc1cccnc1 [compound 86]			D or higher
O=C1Nc2ccc(-c3ccc(Cl)cc3)cc2CN1N=Cc1cccnc1 [compound 90]			D or higher
